Active and inactive are the calls of the source.
Tests used:
[1] = target: Heat shock protein HSP 90-alpha (Homo sapiens, UniProt P07900); type: functional, organism-based
[2] = target: Cyclin-dependent kinase 5/CDK5 activator 1 (Homo sapiens, UniProt Q00535); test: CDK5/p35 kinase inhibitors, dose response, biochemical, cherry-picked samples, set 2 (AID 504545)
[3] = target: T1, Mannose-6-phosphate isomerase (Homo sapiens, UniProt P34949); test: inhibitors of human PMI, primary screen, biochemical, fluorescence intensity, coupled assay (AID 1209)
T1 sequence (P34949 whole entry): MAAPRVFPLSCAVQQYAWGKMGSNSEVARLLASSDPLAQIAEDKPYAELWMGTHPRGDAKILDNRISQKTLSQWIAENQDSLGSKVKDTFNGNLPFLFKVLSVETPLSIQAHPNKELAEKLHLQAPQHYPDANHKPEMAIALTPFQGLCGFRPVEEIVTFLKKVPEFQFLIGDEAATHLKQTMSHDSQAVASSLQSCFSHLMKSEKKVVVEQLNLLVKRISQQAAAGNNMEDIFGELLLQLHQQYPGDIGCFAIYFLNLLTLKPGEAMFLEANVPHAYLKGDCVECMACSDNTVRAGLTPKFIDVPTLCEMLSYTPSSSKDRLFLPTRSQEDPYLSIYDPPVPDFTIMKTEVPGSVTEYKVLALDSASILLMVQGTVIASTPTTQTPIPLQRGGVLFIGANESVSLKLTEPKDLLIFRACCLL

[4] = target: T1, Mannose-6-phosphate isomerase; test: human PMI inhibitors, high substrate, primary screen, biochemical, fluorescence intensity, high mannose 6-phosphate (AID 1220)
[5] = Luminescence Cell-Based Dose Response HTS to Identify Activators of Luciferase Translation or Activity in H4 […] Cells. [Related pubchem assays: 1829 (Project Summary), 1814 (Primary HTS)]; type: functional
[6] = system: H4; test: Luminescence Cell-Based Dose Response HTS to Identify Activators of 5'UTR Stem-Loop Driven Prion Protein mRNA Translation in H4 Neuroglioblastoma Cells. [Related pubchem assays: 1829 (Project Summary), 1814 (Primary HTS)]; type: functional; conditions: Homo sapiens
[7] = HEp-2 cell cytotoxicity, dose response, cytotoxicity control for RSV inhibitor project, HTS (AID 2410); type: functional; conditions: human respiratory syncytial virus
[8] = Luminescence Cell-Based Dose Confirmation HTS to Identify Activators of 5'UTR Stem-Loop Driven Alpha-Synuclein mRNA Translation in H4 Neuroglioblastoma Cells. [Related pubchem assays: 1829 (Project Summary), 1814 (Primary HTS)]; type: functional
[9] = target: T2, Carboxy-terminal domain RNA polymerase II polypeptide A small phosphatase 1 (Homo sapiens, UniProt Q9GZU7); test: inhibitors of CTDSP1, concentration-response testing, biochemical assay, absorbance-based, actives from ultra-high-throughput screening (AID 540297); type: functional
T2 sequence (Q9GZU7 whole entry): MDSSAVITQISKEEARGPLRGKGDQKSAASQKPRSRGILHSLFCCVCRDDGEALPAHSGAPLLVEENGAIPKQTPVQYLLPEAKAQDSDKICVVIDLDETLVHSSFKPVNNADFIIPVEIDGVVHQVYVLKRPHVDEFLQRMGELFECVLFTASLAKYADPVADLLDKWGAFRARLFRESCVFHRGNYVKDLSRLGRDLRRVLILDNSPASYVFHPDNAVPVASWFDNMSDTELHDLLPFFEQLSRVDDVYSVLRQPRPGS

[10] = Artemis endonuclease inhibitor potency, dose response, biochemical, fluorescence intensity (AID 720701); type: functional;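 note: Artemis endonuclease enzyme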
[11] = target: Induced myeloid leukemia cell differentiation protein Mcl-1 (Homo sapiens, UniProt Q07820); type: functional
Induced myeloid leukemia cell differentiation protein Mcl-1, sequence (Q07820 whole entry): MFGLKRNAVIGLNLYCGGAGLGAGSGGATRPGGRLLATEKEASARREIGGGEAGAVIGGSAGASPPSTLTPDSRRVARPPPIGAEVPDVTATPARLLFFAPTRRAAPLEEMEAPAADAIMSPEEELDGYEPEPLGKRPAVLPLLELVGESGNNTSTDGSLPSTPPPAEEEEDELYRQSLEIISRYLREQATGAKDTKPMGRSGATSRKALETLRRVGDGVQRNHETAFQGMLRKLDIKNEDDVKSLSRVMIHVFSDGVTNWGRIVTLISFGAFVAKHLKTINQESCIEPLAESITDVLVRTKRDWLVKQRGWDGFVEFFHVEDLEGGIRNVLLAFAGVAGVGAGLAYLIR

[12] = target: NS3 (Hepatitis C virus, UniProt A3EZJ3); test: PubChem AID 2173; set-up: species or system Hepacivirus hominis
NS3, sequence (A3EZJ3 whole entry): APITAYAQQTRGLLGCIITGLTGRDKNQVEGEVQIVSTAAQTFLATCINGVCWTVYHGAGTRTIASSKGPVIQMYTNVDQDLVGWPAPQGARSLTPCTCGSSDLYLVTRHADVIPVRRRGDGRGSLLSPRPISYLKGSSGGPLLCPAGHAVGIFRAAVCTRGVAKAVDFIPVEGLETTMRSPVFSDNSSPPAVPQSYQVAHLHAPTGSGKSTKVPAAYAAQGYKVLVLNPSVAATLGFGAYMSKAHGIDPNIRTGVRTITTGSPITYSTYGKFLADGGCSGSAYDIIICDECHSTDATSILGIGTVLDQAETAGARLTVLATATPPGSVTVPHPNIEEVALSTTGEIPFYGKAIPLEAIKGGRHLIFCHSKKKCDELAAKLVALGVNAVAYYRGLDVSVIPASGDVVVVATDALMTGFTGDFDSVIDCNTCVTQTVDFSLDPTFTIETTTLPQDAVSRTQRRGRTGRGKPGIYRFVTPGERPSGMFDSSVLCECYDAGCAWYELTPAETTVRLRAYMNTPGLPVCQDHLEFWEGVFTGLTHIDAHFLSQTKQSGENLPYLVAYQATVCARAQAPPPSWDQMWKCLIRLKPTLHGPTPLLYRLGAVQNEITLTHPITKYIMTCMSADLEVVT

[13] = system: HEK293; test: Fluorescence-based counterscreen for potentiators or agonists of NPY-Y1: cell-based high-throughput dose response assay for inhibitors of cyclic nucleotide gated ion channel (CNGC) activity. In this assay, the parental HEK293 cell line transfected with a cyclic-nucleotide gated ion channel (CNGC)-based cAMP sensor is used to measure inhibition of isoproterenol-induced CNGC …; type: functional; conditions: Homo sapiens
[14] = target: T3, Neuropeptide Y receptor type 1 (Homo sapiens, UniProt P25929); test: Fluorescence-based dose response cell-based high-throughput screening assay for agonists of NPY-Y1. [Related pubchem assays: 1697 (Screening assay (NPY-Y1 agonists).), 1359 (Screening assay (NPY-Y2 potentiators or agonists).), 1304 (Screening assay (NPY-Y1 potentiators or agonists).), 1704 (Screening assay (CNGC inhibitors).), 1791 (Summary AID.)]; type: functional
T3 sequence (P25929 whole entry): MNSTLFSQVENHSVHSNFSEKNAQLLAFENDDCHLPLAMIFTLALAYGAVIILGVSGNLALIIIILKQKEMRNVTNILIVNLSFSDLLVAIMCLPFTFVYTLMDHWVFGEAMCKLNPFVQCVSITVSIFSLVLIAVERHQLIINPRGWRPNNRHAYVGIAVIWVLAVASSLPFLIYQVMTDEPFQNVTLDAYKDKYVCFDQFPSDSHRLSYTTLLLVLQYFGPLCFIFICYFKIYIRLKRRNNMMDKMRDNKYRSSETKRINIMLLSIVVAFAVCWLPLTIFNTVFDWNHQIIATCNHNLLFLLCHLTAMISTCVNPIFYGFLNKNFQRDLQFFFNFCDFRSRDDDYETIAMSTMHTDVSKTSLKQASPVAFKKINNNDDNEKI

[15] = target: T4, Neuropeptide Y receptor type 2 (Homo sapiens, UniProt P49146); test: Fluorescence-based counterscreen for agonists of NPY-Y1: cell-based high-throughput dose response assay for agonists of NPY-Y2.; type: functional
T4 sequence (P49146 whole entry): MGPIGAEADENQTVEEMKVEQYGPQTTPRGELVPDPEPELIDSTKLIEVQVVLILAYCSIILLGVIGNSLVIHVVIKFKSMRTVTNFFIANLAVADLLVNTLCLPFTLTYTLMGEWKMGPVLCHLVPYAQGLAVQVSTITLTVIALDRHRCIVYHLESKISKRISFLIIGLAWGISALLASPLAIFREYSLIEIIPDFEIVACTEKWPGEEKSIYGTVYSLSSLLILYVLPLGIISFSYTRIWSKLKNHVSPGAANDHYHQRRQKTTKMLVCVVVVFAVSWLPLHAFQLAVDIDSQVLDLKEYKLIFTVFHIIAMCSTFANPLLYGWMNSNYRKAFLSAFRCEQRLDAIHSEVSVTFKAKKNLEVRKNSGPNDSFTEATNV

[16] = inhibitors of SNCA 5'UTR-driven reporter translation, confirmation, H4 neuroglioma cells, luminescence (AID 1988); type: functional, cell-based
[17] = cells; type: functional, cell-based
[18] = inhibitors of SNCA 5'UTR-driven translation, confirmation, luminescence, H4 neuroglioblastoma cells, dose confirmation (AID 2454); type: functional, cell-based;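 note: H4 neuroglioblastoma cells carrying an alpha-synuclein 5'UTR luciferase reporter; potency for inhibition of the luciferase signal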
[19] = cytotoxicity toward DRD oncogenic fibroblasts, dose response, cell-based, non-viral oncogenic, luminescence (AID 1934); type: functional; conditions: Homo sapiens
[20] = Luminescence Cell-Based Dose Response HTS to Identify Inhibitors of 5'UTR Stem-Loop Driven Prion Protein mRNA Translation in H4 Neuroglioblastoma Cells. [Related pubchem assays: 1827 (Project Summary), 1813 (Primary HTS)]; type: functional
[21] = system: BJ; test: cytotoxicity toward BJ-TERT-LT-ST fibroblasts, dose response, cell-based, RAS-independent, luminescence (AID 1935); type: functional; conditions: Homo sapiens;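 note: BJ fibroblasts immortalized with TERT plus LT and ST oncogenes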
[22] = system: BJ; test: cytotoxicity toward BJ-TERT fibroblasts, dose response, cell-based, RAS-independent, luminescence (AID 1933); type: functional; conditions: Homo sapiens
[23] = system: BJ; test: cytotoxicity toward Ras-transformed BJeLR fibroblasts, dose response, cell-based, alamar blue fluorescence, cherrypicked samples (AID 2631); type: functional; conditions: Homo sapiens;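 note: confirmatory dose-response assay in RAS-dependent BJ fibroblasts engineered with TERT, LT and ST, with cytotoxicity read by fluorescence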
[24] = system: BJ; test: cells; type: functional, cell-based; conditions: Homo sapiens
[25] = luciferase reporter signal reduction – luminescence, H4-C neuroglioblastoma cells, dose response (AID 2458); type: functional, cell-based;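 note: H4 neuroglioblastoma cells stably carrying a luciferase reporter gene fusion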
[26] = inhibitors of firefly luciferase expression or activity, dose response, H4 neuroglioma cells, luminescence (AID 1990); type: functional, cell-based
[27] = cells; type: functional
[28] = M. tuberculosis H37Rv growth inhibitors, H37Rv strain (AID 1626); type: functional
[29] = target: T3, Neuropeptide Y receptor type 1; test: Fluorescence-based counterscreen for potentiators or agonists of NPY-Y2: cell-based high-throughput dose response assay for potentiators or agonists of NPY-Y1.; type: functional
[30] = system: HEK293; test: Fluorescence-based counterscreen for potentiators or agonists of NPY-Y2: cell-based high-throughput dose response assay to identify inhibitors of cyclic nucleotide gated ion channel (CNGC) activity. In this assay, the parental HEK293 cell line transfected with a cyclic-nucleotide gated ion channel (CNGC)-based cAMP sensor is used to measure inhibition of isoproterenol-induced CNGC activity by test compound.; type: functional; conditions: Homo sapiens
[31] = target: T3, Neuropeptide Y receptor type 1; test: Fluorescence-based counterscreen for agonists of NPY-Y2: cell-based high-throughput dose response assay for agonists of NPY-Y1.; type: functional
[32] = target: T4, Neuropeptide Y receptor type 2; test: Fluorescence-based cell-based high-throughput dose response assay for potentiators or agonists of NPY-Y2. [Related pubchem assays: 1539 (Screening assay (NPY-Y2 potentiators or agonists).), 1703 (Screening assay (CNGC inhibitors).), 1359 (Screening assay (NPY-Y2 potentiators or agonists).), 1304 (Screening assay (NPY-Y1 potentiators or agonists).) …; type: functional
[33] = target: T4, Neuropeptide Y receptor type 2; test: Fluorescence-based cell-based high-throughput dose response assay for agonists of NPY-Y2. [Related pubchem assays: 1703 (Screening assay (CNGC inhibitors).), 1359 (Screening assay (NPY-Y2 potentiators or agonists).), 1304 (Screening assay (NPY-Y1 potentiators or agonists).), 1710 (Screening assay (NPY-Y2 agonists).), 1791 (Summary AID.)]; type: functional
[34] = target: Cytochrome P450 2C9 (Homo sapiens, UniProt P11712); conditions: Potency
Cytochrome P450 2C9, sequence (P11712 whole entry): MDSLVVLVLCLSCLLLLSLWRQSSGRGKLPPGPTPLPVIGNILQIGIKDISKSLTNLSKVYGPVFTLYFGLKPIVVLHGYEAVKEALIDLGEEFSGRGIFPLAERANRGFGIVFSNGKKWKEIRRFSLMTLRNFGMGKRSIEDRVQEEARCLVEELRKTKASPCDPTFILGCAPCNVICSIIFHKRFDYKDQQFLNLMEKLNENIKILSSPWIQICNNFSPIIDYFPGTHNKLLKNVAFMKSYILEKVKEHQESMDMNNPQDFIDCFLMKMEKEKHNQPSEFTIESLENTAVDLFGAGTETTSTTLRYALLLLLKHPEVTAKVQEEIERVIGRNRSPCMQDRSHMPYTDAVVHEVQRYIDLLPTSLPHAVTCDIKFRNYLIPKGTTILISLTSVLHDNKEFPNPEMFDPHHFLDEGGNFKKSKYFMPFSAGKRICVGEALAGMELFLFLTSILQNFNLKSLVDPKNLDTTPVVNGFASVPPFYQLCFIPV

[35] = inhibitors of Bluetongue virus cytopathic effect, confirmation, arbovirus, BSR cells (AID 1250); type: functional;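 note: protection from viral cytopathic effect measured as cell viability by ATP luminescence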
[36] = target: Mothers against decapentaplegic homolog 3 (Homo sapiens, UniProt P84022); test: Smad3 binding inhibitors, lysate ELISA, dose response, cell lysate, secondary confirmation, chemiluminescent ELISA, HEK293 lysate (AID 1058); type: functional
Mothers against decapentaplegic homolog 3, sequence (P84022 whole entry): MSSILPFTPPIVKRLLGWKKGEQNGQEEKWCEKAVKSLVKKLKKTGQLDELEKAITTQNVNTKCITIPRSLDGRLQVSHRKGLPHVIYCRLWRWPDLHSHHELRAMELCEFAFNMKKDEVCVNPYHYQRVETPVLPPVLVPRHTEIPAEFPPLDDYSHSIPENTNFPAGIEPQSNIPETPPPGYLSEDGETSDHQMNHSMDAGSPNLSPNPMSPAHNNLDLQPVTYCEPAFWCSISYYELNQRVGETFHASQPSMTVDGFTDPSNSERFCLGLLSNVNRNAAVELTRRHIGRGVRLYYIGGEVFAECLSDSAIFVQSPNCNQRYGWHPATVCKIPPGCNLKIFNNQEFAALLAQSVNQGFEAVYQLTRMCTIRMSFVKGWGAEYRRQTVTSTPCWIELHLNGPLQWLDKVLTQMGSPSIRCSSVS

[37] = target: Dual specificity protein phosphatase 3 (Homo sapiens, UniProt P51452); test: VHR1 inhibitor Ki determination, SAR follow-up, biochemical, colorimetric (AID 2004)
Dual specificity protein phosphatase 3, sequence (P51452 whole entry, the tested form may be a part): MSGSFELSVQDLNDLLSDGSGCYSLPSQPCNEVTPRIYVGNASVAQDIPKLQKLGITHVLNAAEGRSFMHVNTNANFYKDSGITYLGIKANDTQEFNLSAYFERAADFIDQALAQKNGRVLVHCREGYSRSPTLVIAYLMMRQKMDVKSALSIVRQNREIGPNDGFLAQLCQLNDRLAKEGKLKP

[38] = target: T5, Estrogen receptor (Homo sapiens, UniProt P03372); test: potentiators of ERα–SRC-1 coactivator binding, dose response, biochemical, TR-FRET, ERα LBD (AID 737)
T5 sequence (P03372 whole entry): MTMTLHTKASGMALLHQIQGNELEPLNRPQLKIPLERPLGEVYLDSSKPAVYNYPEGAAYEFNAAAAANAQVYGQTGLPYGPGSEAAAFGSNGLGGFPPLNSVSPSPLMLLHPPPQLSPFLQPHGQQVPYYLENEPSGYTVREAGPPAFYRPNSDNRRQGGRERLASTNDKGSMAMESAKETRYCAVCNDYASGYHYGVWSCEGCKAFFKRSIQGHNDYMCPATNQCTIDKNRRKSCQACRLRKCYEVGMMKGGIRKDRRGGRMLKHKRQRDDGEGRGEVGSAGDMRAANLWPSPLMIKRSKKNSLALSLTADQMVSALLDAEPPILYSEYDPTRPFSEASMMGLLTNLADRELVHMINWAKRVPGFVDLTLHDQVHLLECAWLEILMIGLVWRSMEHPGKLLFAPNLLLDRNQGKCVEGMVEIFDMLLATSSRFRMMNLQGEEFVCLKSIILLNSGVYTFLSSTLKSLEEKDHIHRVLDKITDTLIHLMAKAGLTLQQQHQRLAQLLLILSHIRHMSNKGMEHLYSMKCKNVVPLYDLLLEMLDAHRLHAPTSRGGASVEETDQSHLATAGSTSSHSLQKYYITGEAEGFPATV

[39] = target: DNA topoisomerase (Yersinia pestis, UniProt A0A2S9PM60); test: Y. pestis Topo-I inhibitors, cleavage product readout, dose response, biochemical, cherry-pick (AID 588525)
DNA topoisomerase, sequence (A0A2S9PM60 whole entry): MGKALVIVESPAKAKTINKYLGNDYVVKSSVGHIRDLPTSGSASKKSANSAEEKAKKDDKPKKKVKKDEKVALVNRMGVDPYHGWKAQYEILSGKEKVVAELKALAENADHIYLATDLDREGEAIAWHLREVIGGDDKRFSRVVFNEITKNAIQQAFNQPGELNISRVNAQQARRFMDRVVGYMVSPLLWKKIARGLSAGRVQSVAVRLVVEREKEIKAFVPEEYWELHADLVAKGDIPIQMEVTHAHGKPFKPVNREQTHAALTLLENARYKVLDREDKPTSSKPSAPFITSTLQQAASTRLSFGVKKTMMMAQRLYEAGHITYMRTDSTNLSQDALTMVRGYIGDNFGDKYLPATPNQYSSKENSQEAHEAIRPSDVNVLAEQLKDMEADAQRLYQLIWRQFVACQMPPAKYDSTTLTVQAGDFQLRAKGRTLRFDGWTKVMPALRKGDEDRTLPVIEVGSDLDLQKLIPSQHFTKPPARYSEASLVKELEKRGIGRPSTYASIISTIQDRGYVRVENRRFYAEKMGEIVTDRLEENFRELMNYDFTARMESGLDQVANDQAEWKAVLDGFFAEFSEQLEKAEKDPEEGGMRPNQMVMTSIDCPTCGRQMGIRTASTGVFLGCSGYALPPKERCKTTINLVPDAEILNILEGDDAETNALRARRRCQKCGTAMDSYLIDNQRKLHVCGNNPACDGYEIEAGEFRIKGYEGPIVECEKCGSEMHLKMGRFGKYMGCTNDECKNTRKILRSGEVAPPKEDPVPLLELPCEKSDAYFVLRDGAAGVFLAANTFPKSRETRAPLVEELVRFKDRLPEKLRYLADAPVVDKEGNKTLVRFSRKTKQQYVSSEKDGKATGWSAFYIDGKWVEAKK

Cyclin-dependent kinase 5/CDK5 activator 1, sequence (Q00535 whole entry): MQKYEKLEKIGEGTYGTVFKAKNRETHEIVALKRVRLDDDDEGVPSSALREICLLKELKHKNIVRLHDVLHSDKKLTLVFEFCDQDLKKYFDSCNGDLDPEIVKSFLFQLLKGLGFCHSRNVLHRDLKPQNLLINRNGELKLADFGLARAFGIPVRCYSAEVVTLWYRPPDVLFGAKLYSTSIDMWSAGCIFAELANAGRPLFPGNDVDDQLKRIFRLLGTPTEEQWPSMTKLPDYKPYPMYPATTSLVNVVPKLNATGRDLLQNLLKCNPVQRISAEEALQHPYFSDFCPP
Cyclin-dependent kinase 5/CDK5 activator 1, sequence (Q15078 whole entry, further chain): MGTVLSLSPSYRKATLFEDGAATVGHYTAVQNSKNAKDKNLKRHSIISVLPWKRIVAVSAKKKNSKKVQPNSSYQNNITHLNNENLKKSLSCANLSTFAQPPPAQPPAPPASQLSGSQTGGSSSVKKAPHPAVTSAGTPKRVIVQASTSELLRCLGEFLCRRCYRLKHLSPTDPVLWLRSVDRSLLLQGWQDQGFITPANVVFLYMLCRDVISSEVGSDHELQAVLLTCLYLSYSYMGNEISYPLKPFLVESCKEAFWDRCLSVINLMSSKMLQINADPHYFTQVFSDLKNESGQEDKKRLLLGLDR

O=[N+]([O-])c1ccc2c(c1)-c1ccccc1C2=NO
AC50 [1]: 3.93 µM (active) | AC50 [2]: 8.4 µM (active)

CCOC(=O)c1c(C)oc2c1c1c(c3ccccc32)OCN(Cc2ccccn2)C1
IC50 [3]: > 50 µM (not active) | IC50 [4]: > 50 µM (not active) | EC50 [5]: 12.9 µM (active) | EC50 [6]: 0.816 µM (active) | CC50 [7]: 40.2 µM (active) | EC50 [8]: 1.87 µM (active)

O=C(Nc1nc(-c2ccco2)c(-c2ccco2)s1)C1CC(=O)N(c2ccc3c(c2)OCCO3)C1 (centres undefined)
IC50 [9]: 3.1 µM (active) | IC50 [10]: > 20 µM (inactive) | IC50 [11]: 4.4 µM (active) | IC50 [12]: 26.3 µM (not active)

CSc1nc(-c2ccco2)nn1C(=O)c1ccccc1Cl
IC50 [13]: > 35.4 µM (not active) | EC50 [14]: > 35.4 µM (not active) | EC50 [15]: > 35.4 µM (not active)

COc1ccc(S(=O)(=O)N2c3ccc(F)cc3CCC2C)cc1 (centres undefined)
EC50 [16]: < 0.1 µM (active) | EC50 [17]: > 12 µM (inconclusive) | EC50 [18]: 1.01 µM (active) | EC50 [19]: 0.776 µM (active) | EC50 [20]: < 0.1 µM (active) | EC50 [21]: 0.716 µM (inconclusive) | EC50 [22]: 0.675 µM (active) | EC50 [23]: 0.25 µM (active) | EC50 [24]: 1.21 µM (inconclusive) | EC50 [25]: 0.757 µM (active) | EC50 [26]: 1.8 µM (active)

O=C(Nc1nc2ccccc2[nH]1)c1cccc([N+](=O)[O-])c1
IC50 [27]: 4.91 µM (active) | IC50 [28]: > 100 µM (active)

CCN(CC)CC(O)Cn1c2ccccc2c2ccccc21 (centres undefined)
EC50 [29]: > 35.4 µM (not active) | EC50 [30]: 1.49 µM (active) | EC50 [31]: 12.5 µM (not active) | EC50 [32]: > 35.4 µM (not active) | EC50 [33]: 29.6 µM (not active)

C=CCOC(=O)C(C(C)=O)C(NC(=O)OC)c1ccc(Cl)cc1 (centres undefined)
AC50 [34]: 3.16 µM (inconclusive)

CC(=O)/C(=N/Nc1cccc(Cl)c1)Sc1nnc(C(O)c2ccccc2)n1-c1ccccc1 (centres undefined)
IC50 [35]: 37.7 µM (active)

COc1ccc(C(c2cc3c(cc2O)OCO3)N2CCCCC2)cc1OC (centres undefined)
IC50 [36]: > 40 µM (not active)

Cc1cccc(COc2ccc3c(c2)oc(=O)c2ccccc23)c1
Ki [37]: 26.4 µM (inactive)

CCc1ccc(Nc2nc(N)nc(CSc3nnnn3-c3ccccc3)n2)cc1
EC50 [38]: 4.76 µM (active) | AC50 [39]: 6.16 µM (active)

— ChEMBL document CHEMBL1201862, “PubChem BioAssay data set” (2004)
